The record followed here is patent US9290745B2, “Luciferase biosensor” (PROMEGA CORPORATION, priority 2003, dated 2016).

In the assay the target is T1, Luc2-CaM fusion (UniProt P08659+P0DP23, D3I/E2D/N119G/N50D).
T1 construct: made in house; host or cells: cell-free: TnT Coupled Reticulocyte Lysate System
The assay can be described thus: C-terminal modulated luciferase fusion system (calmodulin). Type of assay: biochemical, human.

`[Ca+2].[Cl-].[Cl-]` [Ca^+2, CaCl2]: the “effect on EGTA-induced increase in luminescence” value (1 μl 100 mM CaCl2 added after EGTA) is “can be reversed”.

As to `O=C(O)CN(CCOCCOCCN(CC(=O)O)CC(=O)O)CC(=O)O` [EGTA], the increase of luminescence entry (EGTA final concentration 3 mM, Luc2-CaM TnT lysate in LAR) was “about 9 fold”.
